Reference: US11420970B1 (NOVARTIS AG, priority 2019, dated 2022)
Like-named read-outs stand apart in the source and are kept apart here.

What was measured:
NSD2 [1-1365] = NSD2 [1-1365] (Homo sapiens (Human), UniProt O96028); assay: LC-MS/MS-based NSD2 enzymatic assay (SAH production); assay type: biochemical; conditions: read-out: NSD2 IC50
Summary of the method: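 SAH formed was measured by LC-MS/MS using d4-SAH as internal standard and an SAH calibration curve. Compounds were preincubated 20 min with NSD2 [1-1365] and SAM; mouse-liver nucleosome then started a 90 min room-temperature reaction (8 nM enzyme, 1 μM SAM, 400 nM nucleosome final, pH 8.0), stopped with TFA.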

[1] = tested on: cellular H3K36me2 level in thyroid carcinoma cell line CGTH-W-1 (NSD2 E1099K); assay: H3K36me2 cellular ELISA assay in CGTH-W-1 line; assay type: cell-based; conditions: Homo sapiens, read-out: H3K36me2 ELISA in CGTH-W-1
Protocol: H3K36Me2 Cellular ELISA Assay in CGTH-W-1 Line
An ELISA (enzyme-linked immunosorbent assay) based assay was used to test the ability of candidate compound to reduce cellular H3K36me2 level in thyroid carcinoma cell line CGTH-W-1, carrying NSD2 E1099K gain of function mutation. CGTH-W-1 (DSMZ) cells are maintained in RPM11640 media with 10% FBS and 50 U/ml Penicillin-Streptomycin.
Cells were treated with tested compounds at the desired concentration for 72 hours.
(§1) Histone bound plates were washed and blocked with 5% BSA. […] The abundance of H3K36me2 and total H3 was measured by Chemiluminesce on a plate reader. Cell viability was monitored on a parallel seeded plate with CellTiter-Glo reagent (Promega #G7573).

[2] = tested on: cellular H3K36me2 level in multiple myeloma cell line KMS11 (t(4;14)+); assay: H3K36me2 cellular ELISA assay in KMS11-Par line; assay type: cell-based; conditions: Homo sapiens, KMS-11, ELISA, read-out: H3K36me2 ELISA in KMS11-Par
Protocol: H3K36Me2 Cellular ELISA Assay in KMS11-Par Line
An ELISA (enzyme-linked immunosorbent assay) based assay was used to test the ability of candidate compound to reduce cellular H3K36me2 level in multiple myeloma cell line KMS11 (t(4;14)+). KMS11 (Horizon Discovery Ltd.) cells are maintained in RPM11640 media with 12.5% FBS and 50 U/ml Penicillin-Streptomycin. For assay compound treatment, single cell suspension was prepared in Opti-MEM supplemented with B-27 and N2 supplement (Invitrogen 11058-021, 17504-044, 17502-048) for ELISA and in maintenance media for cellTiter Glo (CTG) viability assay. One day prior to cell treatment, 1,250 KMS11 cells were seeded into 384-well Greiner CellStar TC plate (Greiner #781086) at the final volume of 30 μL/well.
Cells were treated with tested compounds at the desired concentration for 72 hours. Crude histone lysate was extracted by 0.4M HCl following neutralization by 0.5M Sodium phosphate, dibasic (Na2HPO4), pH ˜12.5. Equal amount of histone lysate was loaded to Corning 384-well high biding plate (Corning #3577, black) for H3K36m2 and to Thermo 384-well high binding Nunc plate (Thermo #460372, white) for total H3.
as §1

[3] = NSD2 biochemical activity, class symbols
[4] = KMS11-Par line (t(4;14)+), 72 hours treatment

NSD2 [1-1365], sequence (O96028 whole entry): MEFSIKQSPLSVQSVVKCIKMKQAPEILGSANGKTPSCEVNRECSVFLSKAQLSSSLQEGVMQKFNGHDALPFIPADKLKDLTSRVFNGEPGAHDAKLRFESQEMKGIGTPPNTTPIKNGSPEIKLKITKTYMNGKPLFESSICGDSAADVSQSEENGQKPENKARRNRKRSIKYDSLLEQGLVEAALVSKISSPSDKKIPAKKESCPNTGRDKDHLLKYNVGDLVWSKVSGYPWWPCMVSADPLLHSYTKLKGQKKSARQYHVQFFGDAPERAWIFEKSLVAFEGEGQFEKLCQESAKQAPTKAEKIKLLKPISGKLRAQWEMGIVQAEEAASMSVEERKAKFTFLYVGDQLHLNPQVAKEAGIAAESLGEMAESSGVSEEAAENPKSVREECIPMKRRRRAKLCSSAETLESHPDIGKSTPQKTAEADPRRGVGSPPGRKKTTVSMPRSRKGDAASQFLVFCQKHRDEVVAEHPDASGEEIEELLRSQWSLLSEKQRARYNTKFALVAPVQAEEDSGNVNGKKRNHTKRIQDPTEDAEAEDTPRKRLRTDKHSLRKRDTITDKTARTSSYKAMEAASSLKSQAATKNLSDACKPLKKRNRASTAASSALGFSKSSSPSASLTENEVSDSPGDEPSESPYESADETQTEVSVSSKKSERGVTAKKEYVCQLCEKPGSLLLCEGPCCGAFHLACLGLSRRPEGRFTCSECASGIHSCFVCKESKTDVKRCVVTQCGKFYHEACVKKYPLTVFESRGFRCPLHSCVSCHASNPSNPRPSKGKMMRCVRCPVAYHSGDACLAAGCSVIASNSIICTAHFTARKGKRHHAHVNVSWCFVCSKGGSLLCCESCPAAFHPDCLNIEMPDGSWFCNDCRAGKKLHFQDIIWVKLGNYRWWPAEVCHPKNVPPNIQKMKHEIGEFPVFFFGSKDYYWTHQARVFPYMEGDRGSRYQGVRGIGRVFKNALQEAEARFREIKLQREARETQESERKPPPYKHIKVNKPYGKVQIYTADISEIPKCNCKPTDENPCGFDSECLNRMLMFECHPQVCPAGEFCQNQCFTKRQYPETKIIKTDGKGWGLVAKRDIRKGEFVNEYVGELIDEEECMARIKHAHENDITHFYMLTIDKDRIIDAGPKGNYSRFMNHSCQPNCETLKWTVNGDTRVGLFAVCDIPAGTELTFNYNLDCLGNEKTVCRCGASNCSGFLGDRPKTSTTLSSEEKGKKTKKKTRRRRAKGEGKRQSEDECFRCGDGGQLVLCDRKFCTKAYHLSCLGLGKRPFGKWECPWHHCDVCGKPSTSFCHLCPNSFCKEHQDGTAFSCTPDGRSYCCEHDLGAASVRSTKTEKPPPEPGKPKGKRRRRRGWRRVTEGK

SMILES | IC50 (NSD2 [1-1365]) | IC50 ([1]; CGTH-W-1, 72 h) | further results
Nc1ncnc2c1ncn2Cc1cc(-c2ccc(F)c(F)c2)ncc1N1CCC[C@](N)(c2ccc(OC(F)F)cn2)C1 [Example 209, (R)-9-((5-(3-amino-3-(5-(difluoromethoxy)pyridin-2-yl)piperidin-1-yl)-2-(3,4-difluorophenyl)pyridin-4-yl)methyl)-9H-purin-6-amine] | 1 to 10 nM | – | IC50 ([1]; CGTH-W-1 line, ELISA, 72 hours): 324 nM
Nc1ncnc2c1ncn2Cc1cc(-c2ccc3c(c2)OCO3)ncc1N1CCCC(N)(c2cccc(Cl)n2)C1 (centres unmarked) [Example 186, 9-((5-(3-amino-3-(6-chloropyridin-2-yl)piperidin-1-yl)-2-(benzo[d][1,3]dioxo1-5-yl)pyridin-4-yl)methyl)-9H-purin-6-amine] | 10 to 1000 nM | 967 nM | –
NC(=O)c1cccc(C2(N)CCCN(c3cnc(-c4ccc(F)c(F)c4)cc3Cn3cnc4c(N)ncnc43)C2)n1 (centres unmarked) [Example 195, 6-(3-amino-1-(4-((6-amino-9H-purin-9-yl)methyl)-6-(3,4-difluorophenyl)pyridin-3-yl)piperidin-3-yl)picolinamide] | 10 to 1000 nM | 4920 nM | –
COc1ccc(-c2cc(Cn3cnc4c(N)ncnc43)c(N3C[C@H](N)C[C@@H](CF)C3)cn2)cc1F [Example 306, 9-((5-((3R,5R)-3-amino-5-(fluoromethyl)piperidin-1-yl)-2-(3-fluoro-4-methoxyphenyl)pyridin-4-yl)methyl)-9H-purin-6-amine] | 10 to 1000 nM | 6460 nM | –
Nc1ncnc2c1ncn2Cc1cc(-c2ccc3c(c2)COC3)ncc1N1CCCC(N)(c2cccc(Cl)n2)C1 (centres unmarked) [Example 179, 9-((5-(3-amino-3-(6-chloropyridin-2-yl)piperidin-1-yl)-2-(1,3-dihydroisobenzofuran-5-yl)pyridin-4-yl)methyl)-9H-purin-6-amine] | 10 to 1000 nM | 1420 nM | –
Nc1ncnc2c1ncn2Cc1cc(-c2ccc(F)cc2)ncc1N1CCCC(N)(c2csc(Cl)n2)C1 (centres unmarked) [Example 281, 9-((5-(3-amino-3-(2-chlorothiazol-4-yl)piperidin-1-yl)-2-(4-fluorophenyl)pyridin-4-yl)methyl)-9H-purin-6-amine] | 10 to 1000 nM | 826 nM | –
Cn1cc(C2(N)CCCN(c3cnc(-c4ccc(F)c(F)c4)cc3Cn3cnc4c(N)ncnc43)C2)nn1 (centres unmarked) [Example 282, 9-((5-(3-amino-3-(1-methyl-1H-1,2,3-triazol-4-yl)piperidin-1-yl)-2-(3,4-difluorophenyl)pyridin-4-yl)methyl)-9H-purin-6-amine] | 10 to 1000 nM | 1530 nM | –
Nc1ncnc2c1ncn2Cc1cc(-c2ccc(OC(F)F)c(F)c2)ncc1N1CCCC(N)(c2cccc(Cl)n2)C1 (centres unmarked) [Example 228, 9-((5-(3-amino-3-(6-chloropyridin-2-yl)piperidin-1-yl)-2-(4-(difluoromethoxy)-3-fluorophenyl)pyridin-4-yl)methyl)-9H-purin-6-amine] | 10 to 1000 nM | 611 nM | –
Nc1ncnc2c1ncn2Cc1cc(-c2ccc(F)c(F)c2)ncc1N1CCCC(N)(c2ccncn2)C1 (centres unmarked) [Example 255, 9-((5-(3-amino-3-(pyrimidin-4-yl)piperidin-1-yl)-2-(3,4-difluorophenyl)pyridin-4-yl)methyl)-9H-purin-6-amine] | 10 to 1000 nM | 232 nM | –
Nc1ncnc2c1ncn2Cc1cc(-c2ccc(F)c(F)c2)ncc1N1CCC[C@](N)(c2cccc(O)n2)C1 [Example 217, (R)-6-(3-amino-1-(4-((6-amino-9H-purin-9-yl)methyl)-6-(3,4-difluorophenyl)pyridin-3-yl)piperidin-3-yl)pyridin-2-ol] | 1 to 10 nM | 2240 nM | –
COc1ccc(-c2cc(Cn3cnc4c(N)ncnc43)c(N3CCC[C@](N)(c4cccc(Cl)n4)C3)cn2)cc1 [Example 211, (R)-9-((5-(3-amino-3-(6-chloropyridin-2-yl)piperidin-1-yl)-2-(4-methoxyphenyl)pyridin-4-yl)methyl)-9H-purin-6-amine] | 1 to 10 nM | 387 nM | –
COc1cccc([C@@]2(N)CCCN(c3cnc(-c4ccc(F)c(F)c4)cc3Cn3cnc4c(N)ncnc43)C2)n1 [Example 178, (R)-9-((5-(3-amino-3-(6-methoxypyridin-2-yl)piperidin-1-yl)-2-(3,4-difluorophenyl)pyridin-4-yl)methyl)-9H-purin-6-amine] | 1 to 10 nM | 230 nM | –
Cc1cccc([C@@]2(N)CCCN(c3cnc(-c4ccc(F)cc4)cc3Cn3cnc4c(N)nccc43)C2)n1 [Example 261, (R)-1-((5-(3-amino-3-(6-methylpyridin-2-yl)piperidin-1-yl)-2-(4-fluorophenyl)pyridin-4-yl)methyl)-1H-imidazo[4,5-c]pyridin-4-amine] | 1 to 10 nM | – | IC50 ([2]; KMS11-Par line, 72 hours): 235 nM
Cc1cccc(C2(N)CCCN(c3cnc(-c4ccc(F)c(F)c4)cc3Cn3cnc4c(N)ncnc43)C2)n1 (centres unmarked) [Example 177, 9-((5-(3-amino-3-(6-methylpyridin-2-yl)piperidin-1-yl)-2-(3,4-difluorophenyl)pyridin-4-yl)methyl)-9H-purin-6-amine] | 1 to 10 nM | – | IC50 ([2]; KMS11-Par line, 72 hours): 407 nM
CC(C)n1ccc([C@@]2(N)CCCN(c3cnc(-c4ccc(F)cc4)cc3Cn3cnc4c(N)ncnc43)C2)n1 [Example 274, (R)-9-((5-(3-amino-3-(1-isopropyl-1H-pyrazol-3-yl)piperidin-1-yl)-2-(4-fluorophenyl)pyridin-4-yl)methyl)-9H-purin-6-amine] | 1 to 10 nM | – | IC50 ([2]; KMS11-Par line, 72 hours): 5540 nM
Nc1nccc2c1ncn2Cc1cc(-c2ccc(F)c(F)c2)ncc1N1CCC[C@](N)(Cc2nccs2)C1 [Example 48, (S)-1-((5-(3-amino-3-(thiazol-2-ylmethyl)piperidin-1-yl)-2-(3,4-difluorophenyl)pyridin-4-yl)methyl)-1H-imidazo[4,5-c]pyridin-4-amine] | – | – | IC50 (NSD2 [1-1365]; [3]): 1 to 10 nM; IC50 [2, 4]: 464 nM
Cc1cccc(C2(N)CCCN(c3cnc(C4CC4)cc3Cn3cnc4c(N)nccc43)C2)n1 (centres unmarked) [Example 263, 1-((5-(3-amino-3-(6-methylpyridin-2-yl)piperidin-1-yl)-2-cyclopropylpyridin-4-yl)methyl)-1H-imidazo[4,5-c]pyridin-4-amine] | 10 to 1000 nM | – | IC50 ([2]; KMS11-Par line, 72 hours): 4170 nM
Nc1nccc2c1ncn2Cc1cc(C2CCC2)ncc1N1CCCC(N)(c2cccc(Cl)n2)C1 (centres unmarked) [Example 267, 1-((5-(3-amino-3-(6-chloropyridin-2-yl)piperidin-1-yl)-2-cyclobutylpyridin-4-yl)methyl)-1H-imidazo[4,5-c]pyridin-4-amine] | 10 to 1000 nM | – | IC50 ([2]; KMS11-Par line, 72 hours): 1910 nM
CCc1cccc([C@@]2(N)CCCN(c3cnc(C4CC4)cc3Cn3cnc4c(N)nccc43)C2)n1 [Example 252, (R)-1-((5-(3-amino-3-(6-ethylpyridin-2-yl)piperidin-1-yl)-2-cyclopropylpyridin-4-yl)methyl)-1H-imidazo[4,5-c]pyridin-4-amine] | 10 to 1000 nM | – | IC50 ([2]; KMS11-Par line, 72 hours): 7250 nM
Nc1ncnc2c1ncn2Cc1cc(-c2ccc(NC(=O)CCBr)cc2)ncc1N1CCCC(N)(CC(F)F)C1 (centres unmarked) [Example 64, N-(4-(5-(3-amino-3-(2,2-difluoroethyl)piperidin-1-yl)-4-((6-amino-9H-purin-9-yl)methyl)pyridin-2-yl)phenyl)-3-bromopropanamide] | – | – | IC50 (NSD2 [1-1365]; [3]): 10 to 1000 nM; IC50 [2, 4]: 7000 nM
Cc1cccc(C[C@@]2(N)CCCN(c3cnc(-c4ccc(F)c(F)c4)cc3Cn3cnc4c(N)ncnc43)C2)n1 [Example 55, (S)-9-((5-(3-amino-3-((6-methylpyridin-2-yl)methyl)piperidin-1-yl)-2-(3,4-difluorophenyl)pyridin-4-yl)methyl)-9H-purin-6-amine] | – | – | IC50 (NSD2 [1-1365]; [3]): 1 to 10 nM; IC50 [2, 4]: 910 nM
C=CC(=O)Nc1ccc(-c2cc(Cn3cnc4c(N)ncnc43)c(N3CCCC(N)(CC(F)F)C3)cn2)cc1 (centres unmarked) [Example 76, N-(4-(5-(3-amino-3-(2,2-difluoroethyl)piperidin-1-yl)-4-((6-amino-9H-purin-9-yl)methyl)pyridin-2-yl)phenyl)acrylamide] | – | – | IC50 (NSD2 [1-1365]; [3]): 10 to 1000 nM; IC50 [2, 4]: 2120 nM
